Results reported in US4182889A, “Process for preparing 10-methyl-2,9-dioxatricyclo[4,3,1,0^3,7 ] decanes” (Kali-Chemie Pharma GmbH, priority 1977, dated 1980).
Counter-ions that a name gives are not always drawn.

What was measured:
[1] = anticonvulsive activity in the screening in white mice; assay type: in vivo; conditions: oral dosages starting at 10 mg/kg
Text: (§1) The hydrochloride of formula II, test substance number 1973, and the hydrogentartrate of formula II, test substance number 2961, have been used for pharmacological testing.

toxicity in mice (LD50) = conditions: mouse, in vivo
[2] = hexobarbital induced sleep prolongation in mice; assay type: in vivo; conditions: white mice; oral dosages starting at 10 mg/kg; dose dependent
Protocol: For example, they effect a significant increase of the duration of hexobarbital induced sleep in mice upon oral administration of from 1 to 100 mg/kg body weight. Electroencephalographical tests in rats show an increase of the classical and the paradoxical sleep phases upon oral administration of from 1 to 100 mg/kg body weight.
as §1

For `COC1OC2OC3(CN4CCCCC4)C(O)CC(C2C)C13` (stereo not drawn) [test substance number 1973, 3-piperidinomethyl-4β-hydroxy-8-methoxy-10β-methyl-2,9-dioxatricyclo[4,3,1,0^3,7] decane hydrochloride], the anticonvulsive activity [1] was “do not exhibit any anticonvulsive activity”, the LD50 (toxicity in mice (LD50); ip) was 406 mg/kg and the LD50 (toxicity in mice (LD50); po) was 1140 mg/kg. The “increase of the duration of hexobarbital induced sleep” value [2] was “remarkable increase”.
In the case of `COC1OC2OC3(CN4CCCCC4)C(O)CC(C2C)C13` (stereo not drawn) [test substance number 2961, 3-piperidinomethyl-4β-hydroxy-8-methoxy-10β-methyl-2,9-dioxatricyclo-[4,3,1,0^3,7] decane hydrogentartrate], the anticonvulsive activity [1] was “do not exhibit any anticonvulsive activity” and the “increase of the duration of hexobarbital induced sleep” value [2] was “remarkable increase”.
